Data from ChEMBL document CHEMBL1137144, “Synthesis and biological evaluation of novel 4"-alkoxy avermectin derivatives” (2004).
In brackets after ≈: the same amount, converted by molar mass.

How the values were obtained:
[1] = tested on: Caenorhabditis elegans; assay: Minimum inhibitory concentration for growth inhibition of Caenorhabditis elegans (free living nematode) in a microplate assay; format: functional
[2] = tested on: Artemia salina; assay: Minimum inhibitory concentration for growth inhibition of Artemia salina(brine shrimp) in a microplate assay; format: functional

SMILES | MIC [1] | MIC [2]
CCC(C)[C@H]1O[C@]2(C=C[C@@H]1C)C[C@@H]1C[C@@H](C/C=C(\C)C(O[C@H]3C[C@H](OC)C(O[C@H]4C[C@H](OC)[C@@H](OCCO)[C@H](C)O4)[C@H](C)O3)[C@@H](C)/C=C/C=C3\CO[C@@H]4[C@H](O)C(C)=CC(C(=O)O1)C34O)O2 (stereo not given in full) | 10 ng/mL (≈ 10.9 nM) | 2 ng/mL (≈ 2.18 nM)
CCC(C)[C@H]1O[C@]2(CC[C@@H]1C)C[C@@H]1C[C@@H](C/C=C(\C)[C@@H](OC3C[C@H](OC)[C@@H](OC4C[C@H](OC)[C@@H](O)[C@H](C)O4)[C@H](C)O3)[C@@H](C)/C=C/C=C3\CO[C@@H]4[C@H](O)C(C)=C[C@@H](C(=O)O1)[C@]34O)O2 (stereo not given in full) | 2 ng/mL (≈ 2.29 nM) | 2 ng/mL (≈ 2.29 nM)
CCC(C)[C@H]1O[C@]2(C=C[C@@H]1C)C[C@@H]1C[C@@H](C/C=C(\C)[C@@H](O[C@H]3C[C@H](OC)[C@@H](OCC(=O)O)[C@H](C)O3)[C@@H](C)/C=C/C=C3\CO[C@@H]4[C@H](O)C(C)=CC(C(=O)O1)C34O)O2 (stereo not given in full) | 10 ng/mL (≈ 12.7 nM) | 2 ng/mL (≈ 2.54 nM)
CCC(C)[C@H]1O[C@]2(C=C[C@@H]1C)C[C@@H]1C[C@@H](C/C=C(\C)C(O[C@H]3C[C@H](OC)C(O[C@H]4C[C@H](OC)[C@@H](OCCN5CCNCC5)[C@H](C)O4)[C@H](C)O3)[C@@H](C)/C=C/C=C3\CO[C@@H]4[C@H](O)C(C)=CC(C(=O)O1)C34O)O2 (stereo not given in full) | 50 ng/mL (≈ 50.7 nM) | 10 ng/mL (≈ 10.1 nM)
CCC(C)[C@H]1O[C@]2(C=C[C@@H]1C)C[C@@H]1C[C@@H](C/C=C(\C)C(O[C@H]3C[C@H](OC)C(O[C@H]4C[C@H](OC)[C@@H](OC/C=N/O)[C@H](C)O4)[C@H](C)O3)[C@@H](C)/C=C/C=C3\CO[C@@H]4[C@H](O)C(C)=CC(C(=O)O1)C34O)O2 (stereo not given in full) | 2 ng/mL (≈ 2.15 nM) | 2 ng/mL (≈ 2.15 nM)
CCOC(=O)CO[C@H]1[C@H](C)O[C@@H](O[C@@H]2/C(C)=C/C[C@@H]3C[C@@H](C[C@]4(C=C[C@H](C)[C@@H](C(C)CC)O4)O3)OC(=O)C3C=C(C)[C@@H](O)[C@H]4OC/C(=C\C=C\[C@@H]2C)C34O)C[C@@H]1OC (stereo not given in full) | 2 ng/mL (≈ 2.45 nM) | 0.5 ng/mL (≈ 0.613 nM)
CCOC(=O)CO[C@H]1[C@H](C)O[C@@H](OC2[C@H](C)O[C@@H](OC3/C(C)=C/C[C@@H]4C[C@@H](C[C@]5(C/C(=N\OC)[C@H](C)[C@@H](C(C)CC)O5)O4)OC(=O)C4C=C(C)[C@@H](O)[C@H]5OC/C(=C\C=C\[C@@H]3C)C45O)C[C@@H]2OC)C[C@@H]1OC (stereo not given in full) | 2 ng/mL (≈ 1.99 nM) | 2 ng/mL (≈ 1.99 nM)
CCC(C)[C@H]1O[C@]2(CC[C@@H]1C)C[C@@H]1C[C@@H](C/C=C(\C)C(O[C@H]3C[C@H](OC)C(O[C@H]4C[C@H](OC)[C@@H](OCC(=O)O)[C@H](C)O4)[C@H](C)O3)[C@@H](C)/C=C/C=C3\CO[C@@H]4[C@H](O)C(C)=CC(C(=O)O1)C34O)O2 (stereo not given in full) | 0.5 ng/mL (≈ 0.536 nM) | 0.1 ng/mL (≈ 0.107 nM)
CCOC(=O)CO[C@H]1[C@H](C)OC(O[C@H]2[C@H](C)O[C@@H](OC3/C(C)=C/C[C@@H]4C[C@@H](C[C@]5(C=C[C@H](C)[C@@H](C(C)CC)O5)O4)OC(=O)[C@@H]4C=C(C)[C@@H](O)[C@H]5OC/C(=C\C=C\[C@@H]3C)[C@]54O)C[C@@H]2OC)C[C@@H]1OC (stereo not given in full) | 2 ng/mL (≈ 2.09 nM) | 0.5 ng/mL (≈ 0.521 nM)
CCOC(=O)CO[C@H]1[C@H](C)O[C@@H](OC2[C@H](C)O[C@@H](OC3/C(C)=C/C[C@@H]4C[C@@H](C[C@]5(CC(=O)[C@H](C)[C@@H](C(C)CC)O5)O4)OC(=O)C4C=C(C)[C@@H](O)[C@H]5OC/C(=C\C=C\[C@@H]3C)C45O)C[C@@H]2OC)C[C@@H]1OC (stereo not given in full) | 10 ng/mL (≈ 10.3 nM) | 2 ng/mL (≈ 2.05 nM)
CCC(C)[C@H]1O[C@]2(CC[C@@H]1C)C[C@@H]1C[C@@H](C/C=C(\C)[C@@H](O[C@H]3C[C@H](OC)[C@@H](OCC(=O)O)[C@H](C)O3)[C@@H](C)/C=C/C=C3\CO[C@@H]4[C@H](O)C(C)=CC(C(=O)O1)C34O)O2 (stereo not given in full) | 10 ng/mL (≈ 12.7 nM) | 10 ng/mL (≈ 12.7 nM)
CCC(C)[C@H]1O[C@]2(C=C[C@@H]1C)C[C@@H]1C[C@@H](C/C=C(\C)C(O[C@H]3C[C@H](OC)C(O[C@H]4C[C@H](OC)[C@@H](OCCBr)[C@H](C)O4)[C@H](C)O3)[C@@H](C)/C=C/C=C3\CO[C@@H]4[C@H](O)C(C)=CC(C(=O)O1)C34O)O2 (stereo not given in full) | 10 ng/mL (≈ 10.2 nM) | 2 ng/mL (≈ 2.04 nM)
CCC(C)[C@H]1O[C@]2(C=C[C@@H]1C)C[C@@H]1C[C@@H](C/C=C(\C)C(O[C@H]3C[C@H](OC)C(O[C@H]4C[C@H](OC)[C@@H](OCCN)[C@H](C)O4)[C@H](C)O3)[C@@H](C)/C=C/C=C3\CO[C@@H]4[C@H](O)C(C)=CC(C(=O)O1)C34O)O2 (stereo not given in full) | 50 ng/mL (≈ 54.6 nM) | 10 ng/mL (≈ 10.9 nM)
CCC(C)[C@H]1O[C@]2(C=C[C@@H]1C)C[C@@H]1C[C@@H](C/C=C(\C)C(O[C@H]3C[C@H](OC)C(O[C@H]4C[C@H](OC)[C@@H](OCCN5CCCCC5)[C@H](C)O4)[C@H](C)O3)[C@@H](C)/C=C/C=C3\CO[C@@H]4[C@H](O)C(C)=CC(C(=O)O1)C34O)O2 (stereo not given in full) | 50 ng/mL (≈ 50.8 nM) | 10 ng/mL (≈ 10.2 nM)
CCOC(=O)CO[C@H]1[C@H](C)O[C@@H](OC2[C@H](C)O[C@@H](OC3/C(C)=C/C[C@@H]4C[C@@H](C[C@]5(CC(O)[C@H](C)[C@@H](C(C)CC)O5)O4)OC(=O)C4C=C(C)[C@@H](O)[C@H]5OC/C(=C\C=C\[C@@H]3C)C45O)C[C@@H]2OC)C[C@@H]1OC (stereo not given in full) | 2 ng/mL (≈ 2.05 nM) | 0.5 ng/mL (≈ 0.512 nM)
CC[C@H](C)[C@H]1O[C@]2(C=C[C@@H]1C)C[C@@H]1C[C@@H](C/C=C(\C)[C@@H](O[C@H]3C[C@H](OC)[C@@H](O[C@H]4C[C@H](OC)[C@@H](O)[C@H](C)O4)[C@H](C)O3)[C@@H](C)/C=C/C=C3\CO[C@@H]4[C@H](O)C(C)=C[C@@H](C(=O)O1)[C@]34O)O2 [ABAMECTIN COMPONENT B1A] | 2 ng/mL (≈ 2.29 nM) | 0.5 ng/mL (≈ 0.573 nM)
CCC(C)[C@H]1O[C@]2(C=C[C@@H]1C)C[C@@H]1C[C@@H](C/C=C(\C)C(O[C@H]3C[C@H](OC)C(O[C@H]4C[C@H](OC)[C@@H](OCCN5CCOCC5)[C@H](C)O4)[C@H](C)O3)[C@@H](C)/C=C/C=C3\CO[C@@H]4[C@H](O)C(C)=CC(C(=O)O1)C34O)O2 (stereo not given in full) | 10 ng/mL (≈ 10.1 nM) | 2 ng/mL (≈ 2.03 nM)
CCC(C)[C@H]1O[C@]2(C=C[C@@H]1C)C[C@@H]1C[C@@H](C/C=C(\C)[C@@H](OC3C[C@H](OC)[C@@H](OC4C[C@H](OC)C(OCC(=O)N5CCCCC5)[C@H](C)O4)[C@H](C)O3)[C@@H](C)/C=C/C=C3\CO[C@@H]4[C@H](O)C(C)=C[C@@H](C(=O)O1)[C@]34O)O2 (stereo not given in full) | 10 ng/mL (≈ 10 nM) | 10 ng/mL (≈ 10 nM)
CCC(C)[C@H]1O[C@]2(C=C[C@@H]1C)C[C@@H]1C[C@@H](C/C=C(\C)[C@@H](OC3C[C@H](OC)[C@@H](OC4C[C@H](OC)[C@@H](OCC(=O)O)[C@H](C)O4)[C@H](C)O3)[C@@H](C)/C=C/C=C3\CO[C@@H]4[C@H](O)C(C)=C[C@@H](C(=O)O1)[C@]34O)O2 (stereo not given in full) | 0.1 ng/mL (≈ 0.107 nM) | 0.02 ng/mL (≈ 0.0215 nM)
CCOC(=O)CO[C@H]1[C@H](C)O[C@@H](OC2[C@H](C)O[C@@H](OC3/C(C)=C/C[C@@H]4C[C@@H](C[C@]5(CC[C@H](C)[C@@H](C(C)CC)O5)O4)OC(=O)C4C=C(C)[C@@H](O)[C@H]5OC/C(=C\C=C\[C@@H]3C)C45O)C[C@@H]2OC)C[C@@H]1OC (stereo not given in full) | 2 ng/mL (≈ 2.08 nM) | 0.5 ng/mL (≈ 0.52 nM)
CCC(C)[C@H]1O[C@]2(C=C[C@@H]1C)C[C@@H]1C[C@@H](C/C=C(\C)C(O[C@H]3C[C@H](OC)C(O[C@H]4C[C@H](OC)[C@@H](OCCNC(C)=O)[C@H](C)O4)[C@H](C)O3)[C@@H](C)/C=C/C=C3\CO[C@@H]4[C@H](O)C(C)=CC(C(=O)O1)C34O)O2 (stereo not given in full) | 10 ng/mL (≈ 10.4 nM) | 10 ng/mL (≈ 10.4 nM)
CCC(C)[C@H]1O[C@]2(C=C[C@@H]1C)C[C@@H]1C[C@@H](C/C=C(\C)C(O[C@H]3C[C@H](OC)C(O[C@H]4C[C@H](OC)[C@@H](OC/C=N/OC)[C@H](C)O4)[C@H](C)O3)[C@@H](C)/C=C/C=C3\CO[C@@H]4[C@H](O)C(C)=CC(C(=O)O1)C34O)O2 (stereo not given in full) | 2 ng/mL (≈ 2.12 nM) | 0.5 ng/mL (≈ 0.53 nM)
CCC(C)[C@H]1O[C@]2(C=C[C@@H]1C)C[C@@H]1C[C@@H](C/C=C(\C)[C@@H](OC3C[C@H](OC)[C@@H](OC4C[C@H](OC)[C@@H](OCC(=O)N5CCOCC5)[C@H](C)O4)[C@H](C)O3)[C@@H](C)/C=C/C=C3\CO[C@@H]4[C@H](O)C(C)=C[C@@H](C(=O)O1)[C@]34O)O2 (stereo not given in full) | 0.5 ng/mL (≈ 0.5 nM) | 0.5 ng/mL (≈ 0.5 nM)
CCOC(=O)CO[C@H]1[C@H](C)O[C@@H](O[C@@H]2/C(C)=C/C[C@@H]3C[C@@H](C[C@]4(CC[C@H](C)[C@@H](C(C)CC)O4)O3)OC(=O)C3C=C(C)[C@@H](O)[C@H]4OC/C(=C\C=C\[C@@H]2C)C34O)C[C@@H]1OC (stereo not given in full) | 2 ng/mL (≈ 2.45 nM) | 0.5 ng/mL (≈ 0.612 nM)
CCC(C)[C@H]1O[C@]2(C=C[C@@H]1C)C[C@@H]1C[C@@H](C/C=C(\C)C(O[C@H]3C[C@H](OC)C(O[C@H]4C[C@H](OC)[C@@H](OCCN=[N+]=[N-])[C@H](C)O4)[C@H](C)O3)[C@@H](C)/C=C/C=C3\CO[C@@H]4[C@H](O)C(C)=CC(C(=O)O1)C34O)O2 (stereo not given in full) | 10 ng/mL (≈ 10.6 nM) | 0.5 ng/mL (≈ 0.531 nM)
